Paper PMC3773999 (Bioorganic & medicinal chemistry, 2013)

Experiments:
hMC4R = hMC4R (Homo sapiens, UniProt P32245); conditions: saturation binding, Figure 2
melanocortin receptors = conditions: ref [28]; cited from earlier work

hMC4R, sequence (P32245 whole entry): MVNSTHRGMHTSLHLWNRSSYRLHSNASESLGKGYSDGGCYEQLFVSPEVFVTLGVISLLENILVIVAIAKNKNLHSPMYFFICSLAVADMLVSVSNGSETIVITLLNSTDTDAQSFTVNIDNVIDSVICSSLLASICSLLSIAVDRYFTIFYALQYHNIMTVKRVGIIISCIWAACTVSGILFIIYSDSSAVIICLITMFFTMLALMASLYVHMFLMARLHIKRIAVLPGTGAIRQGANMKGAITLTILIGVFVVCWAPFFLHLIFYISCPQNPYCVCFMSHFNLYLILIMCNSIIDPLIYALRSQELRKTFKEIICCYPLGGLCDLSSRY

| non-specific binding relative to probes 3 and 4 (hMC4R) | Compound | off-rate (melanocortin receptors) |
| --- | --- | --- |
| 20% | N=C(N)NCCC[C@H](NC(=O)[C@@H](Cc1ccccc1)NC(=O)[C@H](Cc1c[nH]cn1)NC(=O)COCC(=O)NCCCOCCOCCOCCCNC(=O)CN(CCN(CCN(CC(=O)O)CC(=O)O)CC(=O)O)CC(=O)O)C(=O)N[C@@H](Cc1c[nH]c2ccccc12)C(N)=O [Probe 2, Eu-DTPA-PEGO-MSH(4)] | – |
| – | Ac-Ser-Tyr-Ser-Nle-Glu-His-DPhe-Arg-Trp-Gly-Lys-Pro-Val-NH2 [NDP-α-MSH] | approximately eight |
